Test results from US9328070B2, “Ethynyl derivatives” (Hoffmann-La Roche Inc., priority 2012, dated 2016).

Key:
human mGlu5a receptor [1] = molecular target: T1, human mGlu5a receptor (Homo sapiens (Human), UniProt P41594); test: MPEP binding assay ([3H]MPEP displacement); conditions: [3H]MPEP 2 nM, 1 h at 4° C., EBNA cell membranes
Description: For binding experiments, cDNA encoding human mGlu 5a receptor was transiently transfected into EBNA cells using a procedure described by Schlaeger and Christensen [Cytotechnology 15:1-13 (1998)]. Cell membrane homogenates were stored at −80° C. until the day of assay where upon they were thawed and resuspended and polytronised in 15 mM Tris-HCl, 120 mM NaCl, 100 mM KCl, 25 mM CaCl2, 25 mM MgCl2 binding buffer at pH 7.4 to a final assay concentration of 20 μg protein/well.
Saturation isotherms were determined by addition of twelve [^3H]MPEP concentrations (0.04-100 nM) to these membranes (in a total volume of 200 μl) for 1 h at 4° C. Competition experiments were performed with a fixed concentration of [^3H]MPEP (2 nM) and IC50 values of test compounds evaluated using 11 concentrations (0.3-10,000 nM). Incubations were performed for 1 h at 4° C.
At the end of the incubation, membranes were filtered onto unifilter (96-well white microplate with bonded GF/C filter preincubated 1 h in 0.1% PEI in wash buffer, Packard BioScience, Meriden, Conn.) with a Filtermate 96 harvester (Packard BioScience) and washed 3 times with cold 50 mM Tris-HCl, pH 7.4 buffer. Nonspecific binding was measured in the presence of 10 μM MPEP. The radioactivity on the filter was counted (3 min) on a Packard Top-count microplate scintillation counter with quenching correction after addition of 45 μl of microscint 40 (Canberra Packard S.A., Zurich, Switzerland) and shaking for 20 min.

human mGlu5a receptor [2] = molecular target: T1, human mGlu5a receptor; test: Intracellular Ca2+ mobilization assay (mGlu5 PAM assay); type: cell-based; conditions: for EC50 (nM) mGlu5 PAM assay / mGlu5 PAM EC50 [nM]: HEK-293 cells, human mGlu5a, glutamate at EC20; for Activity profile: PAM = positive allosteric modulator, NAM = negative allosteric modulator; for Efficacy [%]: maximal response in % of the maximal stimulatory effect of saturating L-glutamate
Description: A monoclonal HEK-293 cell line stably transfected with a cDNA encoding for the human mGlu5a receptor was generated; for the work with mGlu5 Positive Allosteric Modulators (PAMs), a cell line with low receptor expression levels and low constitutive receptor activity was selected to allow the differentiation of agonistic versus PAM activity. Cells were cultured according to standard protocols (Freshney, 2000) in Dulbecco's Modified Eagle Medium with high glucose supplemented with 1 mM glutamine, 10% (vol/vol) heat-inactivated bovine calf serum, Penicillin/Streptomycin, 50 μg/ml hygromycin and 15 μg/ml blasticidin (all cell culture reagents and antibiotics from Invitrogen, Basel, Switzerland).
About 24 hrs before an experiment, 5×10^4 cells/well were seeded in poly-D-lysine coated, black/clear-bottomed 96-well plates. The cells were loaded with 2.5 μM Fluo-4AM in loading buffer (1×HBSS, 20 mM HEPES) for 1 hr at 37° C. and washed five times with loading buffer. The cells were transferred into a Functional Drug Screening System 7000 (Hamamatsu, Paris, France), and 11 half logarithmic serial dilutions of test compound at 37° C. were added and the cells were incubated for 10-30 min. with on-line recording of fluorescence. Following this pre-incubation step, the agonist L-glutamate was added to the cells at a concentration corresponding to EC20 (typically around 80 μM) with on-line recording of fluorescence; in order to account for day-to-day variations in the responsiveness of cells, the EC20 of glutamate was determined immediately ahead of each experiment by recording of a full dose-response curve of glutamate.
Responses were measured as peak increase in fluorescence minus basal (i.e. fluorescence without addition of L-glutamate), normalized to the maximal stimulatory effect obtained with saturating concentrations of L-glutamate. Graphs were plotted with the % maximal stimulatory using XLfit, a curve fitting program that iteratively plots the data using Levenburg Marquardt algorithm. The single site competition analysis equation used was y=A+((B−A)/(1+((x/C)D))), where y is the % maximal stimulatory effect, A is the minimum y, B is the maximum y, C is the EC50, x is the log 10 of the concentration of the competing compound and D is the slope of the curve (the Hill Coefficient). From these curves the EC50 (concentration at which half maximal stimulation was achieved), the Hill coefficient as well as the maximal response in % of the maximal stimulatory effect obtained with saturating concentrations of L-glutamate were calculated.
A depression of the signal observed after addition of the EC20 concentration of L-glutamate was indicative of an inhibitory activity of the test compound.

T1 sequence (P41594 other isoform, or with tags, fused parts or gaps): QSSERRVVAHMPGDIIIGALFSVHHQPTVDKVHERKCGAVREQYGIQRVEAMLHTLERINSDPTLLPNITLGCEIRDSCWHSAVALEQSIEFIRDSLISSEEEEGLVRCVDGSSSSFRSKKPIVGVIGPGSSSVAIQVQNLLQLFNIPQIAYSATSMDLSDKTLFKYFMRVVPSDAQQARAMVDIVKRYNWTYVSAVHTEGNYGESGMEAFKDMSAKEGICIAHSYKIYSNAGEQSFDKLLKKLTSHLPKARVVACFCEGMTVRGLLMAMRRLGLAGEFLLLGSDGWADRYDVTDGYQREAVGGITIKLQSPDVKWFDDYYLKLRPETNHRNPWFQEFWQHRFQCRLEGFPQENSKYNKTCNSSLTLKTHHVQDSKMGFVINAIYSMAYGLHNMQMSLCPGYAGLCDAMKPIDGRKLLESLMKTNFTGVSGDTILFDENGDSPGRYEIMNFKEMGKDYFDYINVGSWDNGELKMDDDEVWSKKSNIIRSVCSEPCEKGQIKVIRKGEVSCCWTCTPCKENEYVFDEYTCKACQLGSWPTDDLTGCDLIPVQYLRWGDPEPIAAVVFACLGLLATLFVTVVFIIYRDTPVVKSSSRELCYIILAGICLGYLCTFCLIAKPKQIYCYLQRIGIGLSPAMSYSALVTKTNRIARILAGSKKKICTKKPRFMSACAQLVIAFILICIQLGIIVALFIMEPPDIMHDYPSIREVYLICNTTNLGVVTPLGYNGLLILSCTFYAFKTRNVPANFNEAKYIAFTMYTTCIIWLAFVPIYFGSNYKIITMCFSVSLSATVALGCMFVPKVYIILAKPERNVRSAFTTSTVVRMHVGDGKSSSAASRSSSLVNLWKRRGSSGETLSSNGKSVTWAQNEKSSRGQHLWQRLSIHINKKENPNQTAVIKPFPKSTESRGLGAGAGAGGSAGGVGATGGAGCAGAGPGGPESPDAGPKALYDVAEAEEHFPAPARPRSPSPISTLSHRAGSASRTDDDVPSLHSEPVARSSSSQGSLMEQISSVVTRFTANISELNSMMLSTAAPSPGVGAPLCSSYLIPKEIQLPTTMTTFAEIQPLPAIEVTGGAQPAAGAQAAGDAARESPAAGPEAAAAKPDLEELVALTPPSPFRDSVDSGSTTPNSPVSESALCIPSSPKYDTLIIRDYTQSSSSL

SMILES	Ki (human mGlu5a receptor [1]) [nM]	Activity profile (human mGlu5a receptor [2])	Efficacy [%] (human mGlu5a receptor [2])	further results
CN(C(=O)c1ccc(C#Cc2ccnc(Cl)c2)cn1)C(C)(C)C [Example 1, 5-(2-Chloro-pyridin-4-ylethynyl)-pyridine-2-carboxylic acid tert-butyl-methyl-amide]	28	NAM	–	EC50 (nM) mGlu5 PAM assay (human mGlu5a receptor [2]): inactive
CN(C(=O)c1ccc(C#Cc2cccc(Cl)c2)cn1)C(C)(C)C [Example 2, 5-(3-Chloro-phenylethynyl)-pyridine-2-carboxylic acid tert-butyl-methyl-amide]	15	NAM	–	EC50 (nM) mGlu5 PAM assay (human mGlu5a receptor [2]): inactive
CN(C(=O)c1ccc(C#Cc2cccc(F)c2)cn1)C(C)(C)C [Reference compound 1, reference compound]	29	PAM	–	–
CN(C(=O)c1ccc(C#Cc2cncc(Cl)c2)cn1)C(C)(C)C [Reference compound 2, reference compound]	42	PAM	–	–
CC(C)(NC(=O)c1ccc(C#Cc2ccnc(Cl)c2)cn1)C(F)(F)F [Reference compound 3, reference compound]	58	PAM	–	–
CN(C(=O)c1ccc(C#Cc2cccc(F)c2)cn1)C(C)(C)C [drawing 3]	–	–	64	–
CN(C(=O)c1ccc(C#Cc2cncc(Cl)c2)cn1)C(C)(C)C [drawing 4]	–	–	33	–
CC(C)(NC(=O)c1ccc(C#Cc2ccnc(Cl)c2)cn1)C(F)(F)F [drawing 5]	–	–	80	–
CN(C(=O)c1ccc(C#Cc2ccnc(Cl)c2)cn1)C(C)(C)C [drawing 6]	–	–	–	mGlu5 PAM EC50 [nM] (human mGlu5a receptor [2]): Inactive
CN(C(=O)c1ccc(C#Cc2cccc(Cl)c2)cn1)C(C)(C)C [drawing 7]	–	–	–	mGlu5 PAM EC50 [nM] (human mGlu5a receptor [2]): inactive
